Data on 1 molecule can be found in US20050037975A1, “Method for treatment of glutamate related disorders” (priority 1997, published 2005).

“And” between values parts separate entries of the source, which are not always exact repeats. Identical values can stand only once. Marks after values point to notes of the source that are not given here.

Assay [1] concerns brain glutamate receptors (synaptic membranes). The assay can be described thus: [3H]glutamate binding to mouse brain synaptic membranes in vitro. The protocol:
Binding Studies—Synaptic membranes (100 μg protein) were isolated (Y. H. Lee et al., J. Neurosci. Res. 40, 797-806 (1995)) form whole brain homogenate of male Swiss Webster mice and were incubated in 0.1 mM L-glutamate for 30 minutes at 25° C. After addition of 50 nM of [^3H]glutamate, incubation was continued for an additional 45 minutes. Reactions were terminated by centrifugation at 4° C. to separate membrane-bound from free radioactivity. […] The rate (k) and maximum percent blockage of glutamate binding (M) by DETC-MeSO (1) during the incubation time (t) was determined by fitting the equation [% inhibition]=M(1−e^−kh) to these day by use of the program Grafit (Erithicus Software Ltd.). This equation was derived for first-order inactivation by a group specific reagent that gives a partial effect. If “A” is the percent of binding activity that remains after extensive exposure (t=of the receptor to excess DETC-MeSO, then M=100−A)e^−kh+A; substituting (100−M) for “A” and [100−% inhibition] for “a” in this equation gives the one employed for purposes of data analyses. […] A second equation was employed in the analysis of binding data that defines partial, irreversible inactivation of two distinct groups of receptors [% inhibition]=M1(1−e^−k1^IT)+M2(1−e^−k1^IT), where M1 and M2 are the maximum amount of inhibition obtained for complete modification of each receptor population and k1 and k2 are the rate constants for these modifications, respectively.
Six determinations of the effect of DETC-MeSO were made at each concentration tested (1, 5, 10, 50, 100, 200, and 1000 μM) and the average value is shown with error bars for one standard deviation.

The test system is the same in assay [2]. The assay can be described thus: Glutamate binding to synaptic membranes isolated from treated mice. It counts as in vivo, mouse. The protocol: Binding Studies—Synaptic membranes (100 μg protein) were isolated (Y. H. Lee et al., J. Neurosci. Res. 40, 797-806 (1995)) form whole brain homogenate of male Swiss Webster mice and were incubated in 0.1 mM L-glutamate for 30 minutes at 25° C. After addition of 50 nM of [^3H]glutamate, incubation was continued for an additional 45 minutes. Reactions were terminated by centrifugation at 4° C. to separate membrane-bound from free radioactivity. Nonspecific binding (radioactivity bound in the presence of 0.5 mM unlabeled glutamate) averages: 20-30% of total radioactivity bound. The rate (k) and maximum percent blockage of glutamate binding (M) by DETC-MeSO (1) during the incubation time (t) was determined by fitting the equation [% inhibition]=M(1−e^−kh) to these day by use of the program Grafit (Erithicus Software Ltd.). This equation was derived for first-order inactivation by a group specific reagent that gives a partial effect. If “A” is the percent of binding activity that remains after extensive exposure (t=of the receptor to excess DETC-MeSO, then M=100−A)e^−kh+A; substituting (100−M) for “A” and [100−% inhibition] for “a” in this equation gives the one employed for purposes of data analyses. […] A second equation was employed in the analysis of binding data that defines partial, irreversible inactivation of two distinct groups of receptors [% inhibition]=M1(1−e^−k1^IT)+M2(1−e^−k1^IT), where M1 and M2 are the maximum amount of inhibition obtained for complete modification of each receptor population and k1 and k2 are the rate constants for these modifications, respectively.
Synaptic membranes were prepared from the brains of mice injected with DETC-MeSO (5.2 mg/kg, i.p.). The ability of synaptic membrane preparations isolated from DETC-MeSO-treated mice to bind glutamate was compared with similar preparations isolated from control animals. FIG. 3(A) illustrates the results obtained from synaptic membranes prepared from brains of mice killed two hours after a single dose of DETC-MeSO, or two hours after the last injection of multiple consecutive doses (5.2 mg/kg, i.p., daily for seven days). Either single or multiple dosing with DETC-MeSO reduced the capacity of synaptic membranes to bind glutamate by approximately 50%, the maximum effect obtained in vitro (FIG. 3). Each bar represents the average of results obtained from four animals and the error bars are for one standard deviation.

Assay [3] concerns MetSOX-induced seizures. The assay can be described thus: MetSOX-induced seizures in mice. The assay is classed as in vivo. The procedure: (§1) Animals—Male Swiss Webster mice (20-30 g) or male Sprague-Dawley rats (250-300 g) were used. All that employed animals were conducted in strict compliance with the NIH guidelines on animal use and institutional regulations concerning animal experimentation. Animals were exposed to hyperbaric oxygen in a specify designed press chamber as previously described (M. D. Faiman et al., Biochem. Pharmacol., 20, 3049-3067 (1971); M. D. Faiman et al. Aerosp. Med.,45, 29032.(1974)). The time to first clonic-tonic seizure after brining animals to a final pressure of five atmospheres of 100% oxygen or after intraperitoneal injection of convulsants was noted by. criteria outlined previously (M. D. Faiman et al. (1971), supra M. D. Faiman et al. (1974), supra). Unless otherwise specified, the ability of DETC-MeSO to prevent seizures was tested by intraperitoneal injection of 5.2 mg/kg of DETC-MeSO 1-2 hours prior to bringing the animal to a final pressure of 5 atmospheres of 100% oxygen or intraperitoneal injection of N-methyl-D-asparate (NMA) (125 mg/kg) r L-methionine sulfoximine (MetSOX) (250 mg/kg). Evaluation of the statistics for whole animal experiments or for changes in brain glutamate binding after administration of DETC-MeSO was conducted by use of the program GraphPAD InStat from Graph PAD Software (San Diego, Calif.).

Assay [4] relates to MetSOX-induced seizures. Description: MetSOX-induced seizures in rats. The assay is classed as in vivo. The procedure: as §1
In assay [5] the test system is oxygen-induced seizures (5 ATA O2). The assay can be described thus: Hyperbaric oxygen-induced seizures in mice. The assay is classed as in vivo. The procedure:
as §1

Where [6] appears, read: double exponential fit, nominal values.
[7] abbreviates: MetSOX 250 mg/kg, 5.2 mg/kg i.p. 1-2 hours prior, ± standard error.

Take `CCN(CC)C(=O)[S+](C)[O-]` (stereo not drawn) [DETC-MeSO, S-Methyl-N,N-Diethylthiolcarbamate Sulfoxide]: the “inhibition of glutamate binding” value was 53% in assay [1] (0.1 mM, absence of glycine (FIG. 2)) and “less inhibition” in assay [2] (single dose 5.2 mg/kg i.p., killed 24 hours after). Further, the “irreversible blockage of glutamate binding” value in assay [1] (0.1 mM, in the presence of glycine (0.1 mM)) was found to be 48±3%. For the same molecule, in assay [1] (setting [6]), the “M1, maximum inhibition of first receptor population” value is 15%. Moreover, the “M2, maximum inhibition of second receptor population” value in assay [1] (setting [6]) is recorded as 43%. Further, in assay [1] (setting [6]), the “k1, rate constant of first receptor population” value is 900 M⁻¹ s⁻¹ and 901 M⁻¹ s⁻¹. For the same molecule, in assay [1] (setting [6]), the “k2, rate constant of second receptor population” value turned out to be 8 M⁻¹ s⁻¹. Moreover, the “effect on glutamate binding to synaptic membrane preparations” value in assay [1] (in vitro, without glycine) is “time-dependent, partial, and irreversible loss of their ability to bind glutamate”. For the same molecule, the “rate (k) of blockage of glutamate binding” value in assay [1] (single exponential fit) was 25±10 M^−s^−1. Also, the “maximum percent blockage of glutamate binding (M)” value in assay [1] (single exponential fit, 1-1000 μM) is on record as 58±7%. Further, the “irreversible brain glutamate receptor blockage” value in assay [2] (30 μmol/kg intravenous, mice) stood at 38.2±1.6%. In addition, the “reduction of capacity of synaptic membranes to bind glutamate” value in assay [2] (5.2 mg/kg i.p. daily for seven days, killed two hours after last injection) is given as “approximately 50%”; in assay [2] (single dose 5.2 mg/kg i.p., killed two hours after), “approximately 50%”. Besides, the “effect on time free of MetSOX seizures” value with MetSOX-induced seizures [3] and with MetSOX-induced seizures [4] was “more than doubled” each time. Further, the “mean time to seizure” value in the assay with MetSOX-induced seizures [3] (setting [7]) was 307 ± 60 min; with MetSOX-induced seizures [4] (setting [7]), 318 ± 60 min; in assay [5] (5 ATA 100% O2, mice, 5.2 mg/kg i.p. prior, observation one hour), >60^a min. The “number of animals that exhibited the effect/total number of animals in the group” value was “(6/8)^a” with MetSOX-induced seizures [3] (MetSOX 250 mg/kg, observation six hours); “(4/4)” in the assay on MetSOX-induced seizures [4] (MetSOX 250 mg/kg); “(0/5)^a” in assay [5] (5 ATA 100% O2, mice). The “effect on oxygen-induced seizures” value in assay [5] (5.2 mg/kg i.p. 2 hours before 5 atmospheres of 100% oxygen, mice) was “prevented the seizures”.
